Measurements published in patent US20250273312A1, “SYSTEM AND METHOD FOR IMMUNOSUPPRESSANT DOSAGE” (THE REGENTS OF THE UNIVERSITY OF CALIFORNIA, priority 2021, published 2025).

Assays:
[1] = human, in vivo
Text: (§1) The inclusion criteria for the study was (1) the subject was undergoing primary or secondary liver or simultaneous liver and kidney transplantation; (2) the subject or a surrogate was able to provide informed consent; and (3) the subject was at least 18 years of age. […] Sixty two (62) subjects were accepted into the trial.
Each of the 62 selected subjects were randomized, with half (31) assigned to a control group and the other half (31) assigned to a phenotypic personalized medicine (PPM) group. The subjects were blinded to group assignments; the clinical team was not blinded. […] The SOC dosing utilized a combination of dose titration and a subjective determination by a clinician. The subjective determination relied on patient weight, age, muscle mass, race/ethnicity, frailty, diet, concomitant medication, and other factors to select an initial dose for the next twenty-four hours. The patient's response to this dose is then taken into consideration for determining the next day's dose recommendation. This determination was repeated each day until the patient was able to be released from the hospital.
After the third day, the Control group continued with the standard-of-care procedure while the PPM group subjects were given dosages calculated by the PPM prediction model, shown in the Function below. […]

[2] = Average deviation between target (predicted) and measured tacrolimus serum level for dosing Functions 0, 1, 2; parameters: species or system human; conditions: unit assumed
Text: Additionally, data from the clinical trial was utilized to determine the average deviations between a target (i.e., predicted) serum level and an actual (i.e., measured) serum level for the two PPM patients.
Where Function 0 is ST(DT, t)=x0(t)+x1(t)DT+x11(t)DT^2; Function 1 is [(D/S)T](N+1) day=[(D/S)T]N day; and Function 2 is [(D/S)T]next day=x0(t)+x1(t)[AST×(D/S)T]today+z11(t)[AST×(D/S)T] today. […] By incorporating the AST level the current system and methods can provide further improvement in achieving a target serum levels

[3] = Same clinical trial: clinical outcomes (length of stay, AST normalization, neurotoxicity); assay type: in vivo, human
Text: as §1
Each of the 62 selected subjects were randomized, with half (31) assigned to a control group and the other half (31) assigned to a phenotypic personalized medicine (PPM) group. The subjects were blinded to group assignments; the clinical team was not blinded. The patients in the PPM group were given tacrolimus dosages based on the present dosage calculation system and patients of the Control group were given tacrolimus dosages based on standard-of-care (SOC) dosing. The SOC dosing utilized a combination of dose titration and a subjective determination by a clinician. The subjective determination relied on patient weight, age, muscle mass, race/ethnicity, frailty, diet, concomitant medication, and other factors to select an initial dose for the next twenty-four hours. The patient's response to this dose is then taken into consideration for determining the next day's dose recommendation. This determination was repeated each day until the patient was able to be released from the hospital.
Tacrolimus dosage was discontinued for one patient in each of the PPM group and the Control group. […] As this would affect dosing accuracy and the study outcomes, this patient was excluded from analysis. One patient assigned to the Control group refused multiple tacrolimus doses in the post-operative period and was therefore excluded from analysis. The remaining 56 (29 Control group and 27 PPM group) patients completed the study and were discharged from the hospital after transplantation.
Following liver transplantation, all study patients were started on standard-of-care medication regimen: a three-drug combination of tacrolimus, a corticosteroid, and mycophenolate. Blood tacrolimus trough levels were measured daily in the morning until patient discharge. […] After the third day, the Control group continued with the standard-of-care procedure while the PPM group subjects were given dosages calculated by the PPM prediction model, shown in the Function below.
The primary outcome measure was percent days with large (>2 ng/ml) deviations from target range. Secondary outcomes included percent days outside-of-target range, ratio of area-under-the-curve outside-of-target-range to total days, graft rejection, graft failure, death, infections, length of stay, nephrotoxicity episodes, or neurotoxicity episodes. Comparisons between the two groups were performed using either the two-tailed Welch's t-test or Student's t-test. For nonparametric (non-normal) distributions, a two-tailed Levene's test was used to compare variances and a two-tailed Wilcoxon Rank Sum test was used to compare medians. Logistic regression was used to dichotomize the length of stay after transplant and the percent days out of target range for comparison. Statistical analyses were performed on JMP Pro 16.1.0.

C=CC[C@@H]1/C=C(\C)C[C@H](C)C[C@H](OC)[C@H]2O[C@@](O)(C(=O)C(=O)N3CCCC[C@H]3C(=O)O[C@H](/C(C)=C/[C@@H]3CC[C@@H](O)[C@H](OC)C3)[C@H](C)[C@@H](O)CC1=O)[C@H](C)C[C@@H]2OC [tacrolimus]
decrease in the percentage of days with a large deviation from the target trough drug level [1]: 37%
reduction of the mean AUC outside of target range [1]: 30%
Average Deviation from Target Serum Level ([2]; Function 0, first row of Table 5 (one of the two PPM patients)): 2.9 ng/mL
Average Deviation from Target Serum Level ([2]; Function 0, second row of Table 5 (one of the two PPM patients)): 1.6 ng/mL
Average Deviation from Target Serum Level ([2]; Function 1, first row of Table 5): 2 ng/mL
Average Deviation from Target Serum Level ([2]; Function 1, second row of Table 5): 1.2 ng/mL
Average Deviation from Target Serum Level ([2]; Function 2, first row of Table 5): 1.4 ng/mL
Average Deviation from Target Serum Level ([2]; Function 2, second row of Table 5): 0.6 ng/mL
days after liver transplant until release from hospital ([3]; Control Patient, conventional titration): 19 days
average hospital stay ([3]; Control group): 15.87 days
day by which 90% of the patients were discharged ([3]; Control group): 25 days
share of group with post-transplant length of stay two weeks or more ([3]; Control group): 65.5%
median days to normalize AST levels (DAST) ([3]; Control group (Q1-Q3 6.25-11.75)): 8.5 days
median length-of-stay (LOS) ([3]; Control group (Q1-Q3 10.5-20.5)): 15 days
average hospital stay ([3]; Control group, two patients with the longest stay removed): 14.36 days
days after liver transplant until release from hospital ([3]; First PPM Patient): 12 days
average hospital stay ([3]; PPM group): 10.42 days
day by which 90% of the patients were discharged ([3]; PPM group): 15 days
share of group with post-transplant length of stay two weeks or more ([3]; PPM group (5/27)): 18.5%
median days to normalize AST levels (DAST) ([3]; PPM group (Q1-Q3 4-8)): 6 days
median length-of-stay (LOS) ([3]; PPM group (Q1-Q3 8-12)): 10 days
reduction in the post-transplant length of stay ([3]; PPM group versus Control group): more than 30%
average hospital stay ([3]; PPM group, two patients with the longest stay removed): 8 days
day of release from hospital ([3]; Second PPM Patient): 11 days
neurotoxicity leading to discontinuation of tacrolimus ([3]; one patient in each of the PPM group and the Control group, evidenced by brain imaging): neurotoxicity within the first week after transplant that was deemed not dose related
